Literature values, collected in patent US20010031747A1, “Progestin therapy for maintaining amenorrhea” (COLUMBIA LABORATORIES (BERMUDA) LIMITED, priority 1997, published 2001).
Read-outs that look alike come from different tables or passages of the source.

How the values were obtained:
[1] = sublingual
[2] = nasal
[3] = intramuscular; 100 mg doses
[4] = subdermal, six 100 mg pellets
endometrium = details: topical application to the breast

- Time to return to basal levels [1]: twenty-four
- Mean maximum concentration ([2]; 20 mg dose): 2.1 ng/mL
- Time of mean maximum concentration ([2]; 20 mg dose): approximately 30 minutes
- Mean maximum concentration ([2]; 30 mg dose): 4.1 ng/mL
- Time of mean maximum concentration ([2]; 30 mg dose): ~240 min
- Time to achieve serum concentrations [3]: two to eight
- Mean peak progesterone level ([4]; six months after implantation): 1.9 ng/mL
- Peak progesterone level ([4]; within the first week after insertion): 4.4 ng/mL
- Increase over baseline serum levels (vaginal suspension 50 mg/ml (carboxymethyl cellulose, methyl cellulose), after 15 minutes): 10 fold
- Peak increase over baseline levels (vaginal suspension 50 mg/ml, at peak): thirty- to forty
- Serum level after decline (vaginal suspension 50 mg/ml, declining over the next ten hours): 3.68 ng/mL
- Peak serum level (vaginal suspension 50 mg/ml, maintained over the next seven hours): 12.25 ng/mL
Structure (SMILES): CC(=O)[C@H]1CC[C@H]2[C@@H]3CCC4=CC(=O)CC[C@]4(C)[C@H]3CC[C@]12C [progesterone]
- Endometrial effects (endometrium): no significant endometrial effects
